Where no end group is shown, it is not given here.
Target: T1, Nox4 oxidase (COS-Nox4 lysate: hNox4, p22phox) (Homo sapiens, UniProt Q9NPH5)
T1 construct: expressed in transfected cells; host or cells: COS-22 cells (COS 7 with p22phox), stably transfected; cell lysate used
T1 sequence (Q9NPH5 1-578): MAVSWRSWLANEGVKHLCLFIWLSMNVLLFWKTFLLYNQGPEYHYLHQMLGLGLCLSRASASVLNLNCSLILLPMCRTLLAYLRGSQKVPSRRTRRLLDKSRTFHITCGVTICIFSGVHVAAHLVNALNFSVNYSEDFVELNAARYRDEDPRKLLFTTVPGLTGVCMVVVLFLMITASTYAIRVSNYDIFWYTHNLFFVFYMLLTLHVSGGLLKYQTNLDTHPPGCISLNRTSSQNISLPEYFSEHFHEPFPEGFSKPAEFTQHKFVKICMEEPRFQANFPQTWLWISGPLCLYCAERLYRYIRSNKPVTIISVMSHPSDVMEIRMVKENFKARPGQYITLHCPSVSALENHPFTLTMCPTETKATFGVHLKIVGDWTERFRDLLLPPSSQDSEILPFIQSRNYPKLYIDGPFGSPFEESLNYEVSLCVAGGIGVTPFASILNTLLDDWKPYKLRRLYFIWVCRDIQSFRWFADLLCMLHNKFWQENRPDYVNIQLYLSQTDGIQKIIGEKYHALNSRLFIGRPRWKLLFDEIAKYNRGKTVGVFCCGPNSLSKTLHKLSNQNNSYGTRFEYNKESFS
T1 sequence (P13498 2-195 partner limits assumed): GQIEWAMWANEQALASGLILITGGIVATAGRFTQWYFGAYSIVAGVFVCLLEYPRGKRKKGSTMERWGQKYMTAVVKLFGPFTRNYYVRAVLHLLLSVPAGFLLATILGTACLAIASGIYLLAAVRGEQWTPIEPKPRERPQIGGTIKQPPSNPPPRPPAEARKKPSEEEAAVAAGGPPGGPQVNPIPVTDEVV
Assay: Amplex Red assay, H2O2 production in COS-Nox4 lysates
Type: biochemical
Conditions: for rate of H2O2 production, Amplex red oxidation: 0 μM control 80.4±3.1
Method: To test this hypothesis, the inhibitory activity of Nox2ds was assessed in cell-free assays using reconstituted systems expressing either Nox1, 2 or 4 oxidase. Nox 2 oxidase was recapitulated by stably transfecting COS 7 cells with Nox2, p22phox, p47phox, and p67phox (aka COS-Nox2). Nox1 oxidase was obtained by transfecting COS 7 cells with Nox1, p22phox, NOXO1 and NOXA1 (COS-Nox1), and Nox 4 oxidase was regenerated by transfection of COS 7 cells with Nox4 and p22phox. […] Our new data support selectivity of Nox2ds peptide in differentiating the contribution of Nox2 vs. Nox1 and Nox4 NADPH oxidase and its potential clinical use in ameliorating cardiopulmonary diseases.
Cell transfection was carried out using Lipofectamine LTX and Plus reagent (Invitrogen), according to the manufacturer's instructions. COS-22 cells were transiently cotransfected with pcDNA 3.1-hNox1, pCMVsport 6-hNOXA1, and pcDNA3.1-hNoxO1 (COS-Nox1/NOXO1/NOXA1 cells). Cells were used 24 h after transfection. For stable transfection of Nox4, COS-22 cells were transfected with pcDNA3.1/Hygro-hNox4 (COS-Nox4 cells). COS-Nox4 cells were selected in complete medium supplemented with 0.2 mg/ml hygromycin B and 1.8 mg/ml G418. Stable transfectants were maintained in culture under the same conditions. Adherent cells were harvested by incubating with 0.05% trypsin/EDTA for 5 min at 37° C. After addition of DMEM/10% FBS to neutralize the trypsin, the cells were pelleted by centrifugation at 1000 g for 5 min at 4° C. and used for the experiments.
Hydrogen peroxide (H2O2) generation was quantified in COS-Nox4 cell lysates by Amplex Red. H2O2-producing activity was quantified in […] using Amplex red. Briefly, COS-Nox4 cells (5×10^7 cells/nil) were disrupted in ice-cold disruption buffer (PBS containing 0.1 mM EDTA, 10% glycerol, protease inhibitor cocktail, and 0.1 mM PMSF) by freeze/thaw cycles as we described above. Incubation of COS-Nox4 cell lysate with Nox2ds was performed in assay buffer (25 mM Hepes, pH 7.4, containing 0.12 M NaCl, 3 mM KCl, 1 mM MgCl2, 0.1 mM Amplex red, and 0.32 U/ml HRP) for 5 min at room temperature on an orbital shaker (120 movements/min), before the addition of 36 μM NADPH, to initiate H2O2 production. […] Fluorescence measurements were made using a Biotek Synergy 4 hybrid multimode microplate reader with a 530/25-excitation and a 590/35-emission filter. A standard curve of known H2O2 concentrations was developed using the Amplex red assay (as per the manufacturer's instructions) and was used to quantify H2O2 production in the COS-Nox4 cell-free system. Nox4 activity was obtained by subtracting nontransfected COS-22 cell lysate activity from COS-Nox4 cell lysate activity. The reaction was monitored at room temperature for 10 min, and the emission increase was linear during this interval.
H2O2 production was initiated by the addition of NADPH and measured by Amplex Red for 10 min.

Q: For CSTRVRRQL-NH2 [Nox2ds, CSTRVRRQL], which “inhibition of COS-Nox4 lysate H2O2 production (in words)” value is on record?
A: Its value is “did not inhibit”.

Q: What about the “rate of H2O2 production, Amplex red oxidation” value (“rate of H2O2 production” below) (0.1 μM peptide) of the same substance?
A: The value was 74.3±2.1 nmol H2O2/min/10^7 cell lysate equivalents.

Q: And the “rate of H2O2 production” value (0.3 μM peptide)?
A: Its value is 74.1±5.9 nmol H2O2/min/10^7 cell lysate equivalents.

Q: And the “rate of H2O2 production” value (1 μM peptide)?
A: The value was 82.3±3.4 nmol H2O2/min/10^7 cell lysate equivalents.

Q: What about the “rate of H2O2 production” value (3 μM peptide) of the same substance?
A: Its value is 83.3±1.6 nmol H2O2/min/10^7 cell lysate equivalents.

From patent publication US9585933B2, “Therapeutic use of peptide inhibitors of NADPH oxidase; aerosolization as a delivery mechanism” (University of Pittsburgh—Of the Commonwealth System of …, priority 2011, dated 2017)
